Broadly, the IC50 is the concentration that inhibits the measured activity by half. A low value points to higher potency.

The target in this test is T1, CDK2/Cyclin E (Homo sapiens, UniProt P24941).
T1 construct: The open reading frames of CDK2 and Cyclin E were isolated; made in house; host or cells: Spodoptera frugiperda SF21 insect cells with baculovirus co-infection (CDK2 and cyclin E); E. coli BL21 (DE3) pLysS (GST-Rb substrate)
As to the kind of experiment: in vitro kinase assay, Scintillation Proximity Assay, incorporation of [γ-33-P]-ATP into GST-Rb. The format is biochemical. As to conditions: CDK2/Cyclin E partially-purified enzyme, GST-Rb substrate, 0.2 μM ATP, 60 minutes at room temperature. Here is the method: The compounds were tested in an in vitro kinase assay in 96 well format using Scintillation Proximity Assay (SPA—obtained from Amersham) for measuring incorporation of [γ-33-P]-Adenosine Triphosphate into a test substrate (GST-Retinoblastoma protein; GST-Rb). In each well was placed the compound to be tested (diluted in DMSO and water to correct concentrations) and in control wells either roscovitine as an inhibitor control or DMSO as a […] control.
Approximately 0.2 μl of CDK2/Cyclin E partially-purified enzyme (amount dependent on enzyme activity) diluted in 25 μl incubation buffer was added to each well then 20 μl of GST-Rb/ATP/ATP33 mixture (containing 0.5 μg GST-Rb and 0.2 μM ATP and 0.14 μCi [γ-33-P]-Adenosine Triphosphate in incubation buffer), and the resulting mixture shaken gently, then incubated at room temperature for 60 minutes.
To each well was then added 150 μL stop solution containing (0.8 mg/well of Protein A-PVT SPA bead (Amersham)), 20 pM/well of Anti-Glutathione Transferase, Rabbit IgG (obtained from Molecular Probes), 61 mM EDTA and 50 mM HEPES pH 7.5 containing 0.05% sodium azide.
The plates were sealed with Topseal-S plate sealers, left for two hours then spun at 2500 rpm, 1124 xg., for 5 minutes. The plates were read on a Topcount for 30 seconds per well. […]
E. coli paste was resuspended in 10 ml/g of NETN buffer (50 mM Tris pH 7.5, 120 mM NaCl, 1 mM EDTA, 0.5% v/v NP-40, 1 mM PMSF, 1 ug/ml leupeptin, 1 μg/ml aprotinin and 1 ug/ml pepstatin) and sonicated for 2×45 seconds per 100 ml homogenate. […] The final product was analysed by Sodium Dodeca Sulfate (SDS) PAGE (Polyacrylamide gel) using 8-16% Tris-Glycine gels (Novex, San Diego, USA).
The open reading frames of CDK2 and Cyclin E were isolated by reverse transcriptase-PCR using HeLa cell and activated T cell mRNA as a template and cloned into the insect expression vector pVL1393 (obtained from Invitrogen 1995 catalogue number: V1392-20). […]
For orientation: SPA uses beads or plates that emit light when radiolabelled molecules are held near them.
Consider `CC(C)n1c(-c2ccnc(Nc3ccccc3)n2)cnc1C(=O)c1ccccc1` [Example 6, 2-Anilino4(2-benzoyl-1-isopropylimidazol-5-yl)pyrimidine], for which the IC50 turned out to be 65 nM. That is a double-digit nanomolar value. Under `CC(C)n1c(-c2ccnc(Nc3ccccc3)n2)cnc1C(=O)CCc1ccccc1` [Example 9, 2-Anilino-4-[2-(3-phenylpropionyl)-1-isopropylimidazol-5-yl]pyrimidine] stands 64 nM; under `CC(C)n1c(-c2ccnc(Nc3ccccc3)n2)cnc1C(=O)c1ccncc1` [Example 8, 2-Anilino-4-[2-(pyridin-4-ylcarbonyl)-1-isopropylimidazol-5-yl]pyrimidine], 4 nM.

Values taken from patent US7427626B2, “2-Anilino-4-(imidazol-5-yl)-pyrimidine derivatives and their use as cdk (cdk2) inhibitors” (AstraZeneca AB, priority 2003, dated 2008).
